Reference: paper PMC12348844, “Anti-Trypanosoma cruzi Potential of New Pyrazole-Imidazoline Derivatives” (Molecules, 2025)
Like-named read-outs stand apart in the source and are kept apart here.

Columns and labels:
[1] = test system: T. cruzi Dm28c-Luc trypomastigotes; test: Anti-T. cruzi in vitro assay, trypomastigotes (luminescence); assay type: cell-based; settings: Trypanosoma cruzi, 24 h, mean ± SD
Protocol: (§1) The genetically modified Trypanosoma cruzi, clone Dm28c (TcI), expressing luciferase (Dm28c-Luc), was kindly provided by Dr. Cristina Henriques from Oswaldo Cruz Institute—Fiocruz. The parasites were maintained using Vero cell cultures in RPMI 1640 medium enriched with 10% FBS. At 4 days post-infection (dpi), the trypomastigotes released into the culture supernatant were harvested, subjected to centrifugation at 800× g for 20 min at 4 °C, and quantified with a Neubauer chamber. The isolated trypomastigotes were subsequently used for phenotypic screening, drug efficacy assessments employing a 3D cardiac model, washout experiments to evaluate reversibility, drug combination studies, and enzymatic assays.
Drug susceptibility assays were performed on T. cruzi Dm28c-Luc, a genetically engineered parasite expressing luciferase. The drug screening used both trypomastigotes and intracellular amastigotes. Trypomastigotes (1 × 10^6 parasites/well) were added to white 96-well plates with clear bottoms. […] The luminescence was measured using a Glomax Multi-Detection plate reader (Promega Corporation, Madison, WI, USA).

[2] = test system: T. cruzi Dm28c-Luc intracellular amastigotes; test: Anti-T. cruzi in vitro assay, intracellular amastigotes in Vero cells (luminescence); assay type: cell-based, Trypanosoma cruzi; settings: for SI (selectivity index = CC50/IC50): CC50 Vero cells / IC50 intracellular amastigotes
Protocol: as §1
To evaluate the effect of pyrazole-imidazoline derivatives against intracellular amastigotes, Vero cells (1.5 × 10^4 cells/well) were cultured in a white 96-well plate with a clear bottom and subsequently infected with T. cruzi Dm28c-Luc at a 10:1 parasite-to-host cell ratio for 24 h. […] Parasite viability was measured by luminescence following the addition of luciferin (300 µg/mL). Background measurements (non-infected cultures incubated with luciferin, as well as luciferin-only controls) were performed to ensure the signal specifically originates from viable parasites. The IC50 and IC90 values, denoting the concentrations that achieve 50% and 90% reductions in viable parasites, respectively, were calculated using GraphPad Prism 8.2.1 software. Additionally, the selectivity index (SI) was calculated as the cytotoxic concentration (CC50) ratio in mammalian cells to the IC50 against T. cruzi, providing insight into the therapeutic window. Potency against intracellular amastigotes was evaluated using the formula 6—Log10 (IC50).

[3] = Cytotoxicity assay, Vero cells (CellTiter-Glo); assay type: cell-based; settings: African green monkey, mean ± SD
Protocol: Vero cells, obtained from the Rio de Janeiro Cell Bank (BCRT code 0245) and maintained through weekly subculturing with a dissociation solution containing 0.25% trypsin-EDTA, initiated once the monolayer reached an 80–100% confluence. Following harvesting, the cells were washed and resuspended in RPMI 1640 medium enriched with 10% fetal bovine serum (FBS). Cultures were maintained at 37 °C in a 5% CO2-humidified incubator. These cultures were used for drug screening assays and for producing culture-derived trypomastigotes of T. cruzi.
Cytotoxicity assays were performed using Vero cells, which were seeded at a density of 1.5 × 10^4 cells per well in white 96-well plates with clear bottoms. Following a 24 h adhesion period, the cultures were incubated at 37 °C in a 5% CO2 atmosphere. […] After 72 h of incubation, cell viability was assessed by adding CellTiter-Glo reagent (Promega Corporation, Madison, WI, USA), which induces cell lysis and reacts with the released ATP to produce luminescence. The resulting luminescence was measured using a Glomax Multi-Detection plate reader (Promega Corporation, Madison, WI, USA). The half-maximal inhibitory concentration (CC50) for cell viability was then calculated using GraphPad Prism software version 8.2.1.

[4] = Trypanosoma cruzi, Vero, 72 h, Dm28c-Luc in Vero cells, mean ± SD, read-out: Intracellular Amastigotes IC50
[5] = Trypanosoma cruzi, Vero, intracellular amastigotes, 6 − Log10(IC50), read-out: pIC50 (potency) (converted)
[6] = Trypanosoma cruzi, 72 h, Dm28c-Luc in Vero cells, mean ± SD

| SMILES | IC50 [1] | IC90 [1] | SI (selectivity index = CC50/IC50) [2] | IC50 [2, 4] | IC50 [2, 5] | IC90 [2, 6] | CC50 at 72 h [3] | IC50 ([2]; 72 h, Dm28c-Luc in Vero cells, mean ± SD, read-out: Intracellular Amastigotes IC50) |
| --- | --- | --- | --- | --- | --- | --- | --- | --- |
| Cc1ccc(-n2ncc(C3=NCCN3)c2N)cc1Cl [1e, 5-amino-1-(3-chloro-4-methylphenyl)-4-(4,5-dihydro-1H-imidazol-2-yl)-1H-pyrazole] | 76.5 ± 10.3 µM | > 100 µM | >7.2 | 68.9 ± 8.1 µM | 79.4 µM | 96.6 ± 0.2 µM | > 500 µM | – |
| Nc1c(C2=NCCN2)cnn1-c1cccc(C(F)(F)F)c1 [1i, 5-amino-1-(3-trifluoromethylphenyl)-4-(4,5-dihydro-1H-imidazol-2-yl)-1H-pyrazole] | > 100 µM | > 100 µM | >9.6 | 51.9 ± 3.6 µM | 63.1 µM | > 100 µM | > 500 µM | – |
| Cc1ccc(-n2ncc(C3=NCCN3)c2N)cc1 [1c, 5-amino-1-(4-methylphenyl)-4-(4,5-dihydro-1H-imidazol-2-yl)-1H-pyrazole] | > 100 µM | > 100 µM | – | > 100 µM | > 100 µM | > 100 µM | > 500 µM | – |
| Cc1cccc(-n2ncc(C3=NCCN3)c2N)c1 [1g, 5-amino-1-(3-methylphenyl)-4-(4,5-dihydro-1H-imidazol-2-yl)-1H-pyrazole] | > 100 µM | > 100 µM | >6.3 | 78.9 ± 2.2 µM | 79.4 µM | > 100 µM | > 500 µM | – |
| Cc1cc(Cl)ccc1-n1ncc(C2=NCCN2)c1N [1f, 5-amino-1-(4-chloro-2-methylphenyl)-4-(4,5-dihydro-1H-imidazol-2-yl)-1H-pyrazole] | > 100 µM | > 100 µM | >6.5 | 76.1 ± 1.2 µM | 79.4 µM | > 100 µM | > 500 µM | – |
| FC(F)(F)c1cc(-n2cc(C3=NCCN3)cn2)cc(C(F)(F)F)c1 [1m, 1-((3,5-ditrifluoromethyl)phenyl)-4-(4,5-dihydro-1H-imidazol-2-yl)-1H-pyrazole] | > 100 µM | > 100 µM | 3.5 | 32.4 ± 5.9 µM | 31.6 µM | 80.7 ± 0.4 µM | 114 ± 11.9 µM | – |
| Cc1cccc(-n2cc(C3=NCCN3)cn2)c1 [1h, 1-(3-methylphenyl)-4-(4,5-dihydro-1H-imidazol-2-yl)-1H-pyrazole] | > 100 µM | > 100 µM | >19.1 | 26.1 ± 3.4 µM | 25.1 µM | 89.7 ± 7.4 µM | > 500 µM | 26.2 ± 3.4 µM |
| Nc1c(C2=NCCN2)cnn1-c1ccc(Cl)cc1Cl [1a, 5-amino-1-(2,4-dichlorophenyl)-4-(4,5-dihydro-1H-imidazol-2-yl)-1H-pyrazole] | > 100 µM | > 100 µM | >12.2 | 40.8 ± 3 µM | 75.9 µM | > 100 µM | > 500 µM | – |
| Nc1c(C2=NCCN2)cnn1-c1ccc(C(F)(F)F)cc1 [1j, 5-amino-1-(4-trifluoromethylphenyl)-4-(4,5-dihydro-1H-imidazol-2-yl)-1H-pyrazole] | > 100 µM | > 100 µM | >5.6 | 88.1 ± 0.2 µM | 100 µM | > 100 µM | > 500 µM | – |
| Cc1ccc(-n2cc(C3=NCCN3)cn2)cc1 [1d, 1-(4-methylphenyl)-4-(4,5-dihydro-1H-imidazol-2-yl)-1H-pyrazole] | > 100 µM | > 100 µM | >14.7 | 33.9 ± 0.8 µM | 39.8 µM | > 100 µM | > 500 µM | – |
| Nc1c(C2=NCCN2)cnn1-c1cccc(F)c1 [1b, 5-amino-1-(3-fluorophenyl)-4-(4,5-dihydro-1H-imidazol-2-yl)-1H-pyrazole] | > 100 µM | > 100 µM | – | > 100 µM | > 100 µM | > 100 µM | > 500 µM | – |
